Experiment [1] deals with E. coli RNAP holoenzyme (Escherichia coli, UniProt P0A8V2). Nature of the experiment: Transcription assay, T7A1 promoter template, rifampicin inhibition of E. coli RNAP holoenzyme. It is filed as biochemical. To be noted: CpA primer, 37° C., read-out: Ki (estimated from the rifampicin concentration where the production of long transcripts was inhibited by 50%). The text has this: (§1) FIG. 2a depicts autoradiographs showing the radioactive RNA produced by Taq (lanes 1-7) and E. coli (lanes 8-13) RNAP holoenzymes transcribing a template containing the T7 A1 promoter and the tR2 terminator, analyzed on a 15% polyacrylamide gel and quantitated by phosphorimagery. In the absence of rifampicin (lanes 1 and 8), the major RNA products from each RNAP correspond to a trimeric abortive product (CpApU), a 105 nucleotide terminated transcript (Term), and a 127 nucleotide runoff transcript (Run off). Lanes 2-7 and 9-13 show the effects of increasing concentrations of rifampicin. […] Rif-nucleotide compounds (Rif-(CH2)n-Ap) with different linker lengths, n (indicated above each lane) were bound to RNAP, then extended in a specific transcription reaction with α-[^32P]UTP by the RNAP catalytic activity. The products were analyzed on a 23% polyacrylamide gel, visualized by autoradiography, and quantitated by phosphorimagery.
(§2) The transcription assay comparing rifampicin inhibition of E.coli and Taq RNAPs (FIG. 2a) was performed as previously described [Nudler et al., Science 265:793-796 (1994)]. Briefly, 0.1 pmol of purified Taq core RNAP [Zhang et al., Cell 98:811-824 (1999); U.S. Ser. No. 09/396,651, Filed Sep. […] Radioactive RNA products were analyzed on a 15% polyacrylamide sequencing gel.

Experiment [2] deals with T1, Taq RNAP holoenzyme (Thermus aquaticus, UniProt Q9KWU7).
T1 construct: Taq core RNAP purified from Taq cells; made in house; host or cells: core: purified natively from Thermus aquaticus cells; σA: recombinant in E. coli
Nature of the experiment: Transcription assay, T7A1 promoter template, rifampicin inhibition of Taq RNAP holoenzyme. It counts as biochemical. The settings on record: CpA primer, 37° C., read-out: Ki (estimated from the rifampicin concentration where the production of long transcripts was inhibited by 50%).
From the text: as §1, §2

As to `CO[C@H]1/C=C/O[C@@]2(C)Oc3c(C)c(O)c4c(O)c(c(/C=N/N5CCN(C)CC5)c(O)c4c3C2=O)NC(=O)/C(C)=C\C=C\[C@H](C)[C@H](O)[C@@H](C)[C@@H](O)[C@@H](C)[C@H](OC(C)=O)[C@@H]1C` [rifampicin], the Ki in experiment [1] is ~0.1 µM; in experiment [2] it was ~10 µM.

The record behind these values is patent publication US20040048350A1 (priority 2001, published 2004).
